Assay results as given in US20250213555A1, “SUBSTITUTED TETRAHYDROFURAN ANALOGS AS MODULATORS OF SODIUM CHANNELS” (VERTEX PHARMACEUTICALS INCORPORATED, priority 2021, published 2025).

molecular target: human Nav 1.8 (Homo sapiens, UniProt Q9Y5Y9); assay: E-VIPR assay detecting and measuring Nav inhibition properties; assay type: cell-based; details: HEK cells expressing a truncated form of human Nav 1.8; compound numbers without "*" (not marked as run in the presence of human serum); read-out: measured IC50 value in the E-VIPR Assay
Sequence (Q9Y5Y9 126-399 limits assumed): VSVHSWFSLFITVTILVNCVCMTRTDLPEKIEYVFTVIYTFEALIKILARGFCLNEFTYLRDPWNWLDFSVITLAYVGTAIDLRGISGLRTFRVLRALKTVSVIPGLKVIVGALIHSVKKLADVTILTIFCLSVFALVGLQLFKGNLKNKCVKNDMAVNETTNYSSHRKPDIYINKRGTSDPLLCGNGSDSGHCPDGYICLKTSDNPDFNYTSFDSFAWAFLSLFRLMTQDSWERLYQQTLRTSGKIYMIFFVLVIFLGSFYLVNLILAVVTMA
Sequence (Q9Y5Y9 660-890 limits assumed): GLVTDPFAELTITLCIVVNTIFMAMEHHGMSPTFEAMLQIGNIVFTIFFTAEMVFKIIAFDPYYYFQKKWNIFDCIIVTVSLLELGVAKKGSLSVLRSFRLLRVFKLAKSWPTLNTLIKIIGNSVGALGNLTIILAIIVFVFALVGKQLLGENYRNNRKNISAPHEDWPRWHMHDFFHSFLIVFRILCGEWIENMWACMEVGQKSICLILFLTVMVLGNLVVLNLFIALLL
Sequence (Q9Y5Y9 1148-1722 limits assumed): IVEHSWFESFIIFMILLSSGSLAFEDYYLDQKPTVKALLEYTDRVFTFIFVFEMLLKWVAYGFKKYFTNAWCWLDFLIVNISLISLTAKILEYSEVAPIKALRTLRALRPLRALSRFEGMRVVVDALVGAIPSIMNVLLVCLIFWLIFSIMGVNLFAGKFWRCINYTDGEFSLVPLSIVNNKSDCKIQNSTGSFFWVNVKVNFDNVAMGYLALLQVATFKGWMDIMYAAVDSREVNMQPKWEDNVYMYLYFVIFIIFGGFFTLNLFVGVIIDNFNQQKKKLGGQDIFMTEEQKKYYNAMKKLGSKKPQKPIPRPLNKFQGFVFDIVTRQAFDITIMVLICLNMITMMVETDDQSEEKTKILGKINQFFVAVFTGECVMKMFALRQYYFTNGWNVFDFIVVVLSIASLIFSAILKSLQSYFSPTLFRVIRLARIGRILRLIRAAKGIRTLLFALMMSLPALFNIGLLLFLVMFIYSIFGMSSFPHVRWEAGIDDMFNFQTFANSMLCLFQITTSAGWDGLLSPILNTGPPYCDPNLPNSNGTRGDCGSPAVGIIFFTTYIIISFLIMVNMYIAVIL
From the text: E-VIPR Assay Detecting and Measuring Nav Inhibition Properties
Sodium ion channels are voltage-dependent proteins that can be activated by inducing membrane voltage changes by applying electric fields. The electrical stimulation instrument and methods of use, referred to as E-VIPR, are described in International Publication No. WO 2002/008748 A3 and C.-J. Huang et al. Characterization of voltage-gated sodium channel blockers by electrical stimulation and fluorescence detection of membrane potential, 24 Nature Biotech. 439-46 (2006), both of which are incorporated by reference in their entirety. The instrument comprises a microtiter plate handler, an optical system for exciting the coumarin dye while simultaneously recording the coumarin and oxonol emissions, a waveform generator, a current- or voltage-controlled amplifier, and parallel electrode pairs that are inserted into assay plate wells. Under integrated computer control, this instrument passes user-programmed electrical stimulus protocols to cells within the wells of the microtiter plate.
16-20 hours prior to running the assay on E-VIPR, HEK cells expressing a truncated form of human Nav 1.8 with full channel activity were seeded into microtiter 384-well plates, pre-coated with matrigel, at a density of 25,000 cells per well. 2.5-5% KIR2.1 Bacmam virus was added to the final cell suspension before seeding into cell plates. HEK cells were grown in Dulbecco's Modified Eagle's Medium (DMEM) supplemented with 10% FBS (Fetal Bovine Serum, qualified; Sigma #F4135), 1% NEAA (Non-Essential Amino Acids, Gibco #11140), 1% HEPES (Gibco #15630), 1% Pen-Strep (Penicillin-Streptomycin; Gibco #15140) and 5 μg/ml Blasticidin (Gibco #R^210-01). Cells were expanded in vented cap cell culture flasks, with 90-95% humidity and 5% CO2.
100 mg/mL Pluronic F-127 (Sigma #P2443), in dry DMSO
Compound Plates: Corning 384-well Polypropylene Round Bottom #3656
Cell Plates: 384-well tissue culture treated plates (Greiner #781091-2B)
2.5-5% KIR 2.1 Bacmam virus (produced in-house), prepared as described in Section 3.3 of J. A. Fornwald et al., Gene Expression in Mammalian Cells Using BacMam, a Modified Baculovirus System, 1350 Methods in Molecular Biology 95-116 (2016), the entire contents of which are incorporated by reference. The concentration used can be dependent on viral titer of each batch.
5 mM DiSBAC6(3), a voltage sensitive oxonol acceptor (CAS number 169211-44-3; 5-[3-(1,3-dihexylhexahydro-4,6-dioxo-2-thioxo-5-pyrimidinyl)-2-propen-1-ylidene]-1,3-dihexyldihydro-2-thioxo-4,6 (1H,5H)-pyrimidinedione), in dry DMSO. The preparation of DiSBAC6(3) is analogous to that of DiSBAC4(3) as described in Voltage Sensing by Fluorescence Resonance Energy Transfer in Single Cells, Gonzalez, J. E. and Tsien, R. Y. (1995) Biophys. J. 69, 1272-1280.
5 mM CC2-DMPE, a commercially available membrane-bound coumarin phospholipid FRET donor (ThermoFisher Scientific catalog number K1017, CAS number 393782-57-5; tetradecanoic acid, 1,1′-[(1R)-1-[8-(6-chloro-7-hydroxy-2-oxo-2H-1-benzopyran-3-yl)-3-hydroxy-3-oxido-8-oxo-2,4-dioxa-7-aza-3-phosphaoct-1-yl]-1,2-ethanediyl] ester) was prepared in dry DMSO. See also, Improved indicators of cell membrane potential that use fluorescence resonance energy transfer, Gonzalez, J. E. and Tsien, R. Y. (1997) Chem. Biol. 4, 269-277.
Voltage Assay Background Suppression Compound (VABSC-1) is prepared in H2O (89-363 mM, range used to maintain solubility)
Human Serum (HS, Millipore #S1P1-01KL, or Sigma SLBR5469V and SLBR5470V as a 50%/50% mixture, for 25% assay final concentration)
• Sodium Chloride 160 mM (9.35 g/L), Potassium Chloride, 4.5 mM (0.335 g/L), Glucose 10 mM (1.8 g/L), Magnesium Chloride (Anhydrous) 1 mM (0.095 g/L), Calcium Chloride 2 mM (0.222 g/L), HEPES 10 mM (2.38 g/L) in water. […]

Row | Compound | IC50 [nM]
1 | CC(C)(O)COc1c([C@@H]2C[C@](C)(C(F)(F)F)O[C@H]2C(=O)Nc2ccnc(C(N)=O)c2)ccc(F)c1F (relative stereo) [Compound 32, rel-4-((2R,3S,5R)-3-(3,4-difluoro-2-(2-hydroxy-2-methylpropoxy)phenyl)-5-methyl-5-(trifluoromethyl)tetrahydrofuran-2-carboxamido) picolinamide] | 100 to 1000
2 | COC1CC(Oc2c([C@H]3[C@H](C(=O)Nc4ccnc(C(N)=O)c4)O[C@@](C)(C(F)(F)F)[C@H]3C)ccc(F)c2F)C1 (stereo partly drawn) [Compound 162, 4-((2R,3S,4S,5R)-3-(3,4-difluoro-2-(3-methoxycyclobutoxy)phenyl)-4,5-dimethyl-5-(trifluoromethyl)tetrahydrofuran-2-carboxamido)picolinamide] | < 10
3 | COc1c([C@H]2[C@H](C(=O)Nc3ccnc(C(N)=O)c3)O[C@@](C)(C(F)(F)F)[C@H]2C)ccc(O)c1F [Compound 206, 4-((2R,3S,4S,5R)-3-(3-fluoro-4-hydroxy-2-methoxyphenyl)-4,5-dimethyl-5-(trifluoromethyl)tetrahydrofuran-2-carboxamido) picolinamide] | 10 to 100
4 | C[C@H]1[C@@H](c2ccc(F)c(F)c2OCCC(C)(C)O)[C@H](C(=O)Nc2ccnc(C(N)=O)c2)O[C@@]1(C)C(F)(F)F [Compound 100, 4-((2R,3S,4S,5R)-3-(3,4-difluoro-2-(3-hydroxy-3-methylbutoxy)phenyl)-4,5-dimethyl-5-(trifluoromethyl)tetrahydrofuran-2-carboxamido)picolinamide] | 10 to 100
5 | C[C@H]1[C@@H](c2ccc(F)c(F)c2OC/C(=N\O)C(C)(C)C)[C@H](C(=O)Nc2ccnc(C(N)=O)c2)O[C@@]1(C)C(F)(F)F [Compound 189, 4-((2R,3S,4S,5R)-3-(3,4-difluoro-2-((Z)-2-(hydroxyimino)-3,3-dimethylbutoxy)phenyl)-4,5-dimethyl-5-(trifluoromethyl)tetrahydrofuran-2-carboxamido)picolinamide] | < 10
6 | C[C@H]1[C@@H](c2ccc(F)c(F)c2OCc2cn(C)cn2)[C@H](C(=O)Nc2ccnc(C(N)=O)c2)O[C@@]1(C)C(F)(F)F [Compound 88, 4-((2R,3S,4S,5R)-3-(3,4-difluoro-2-((1-methyl-1H-imidazol-4-yl)methoxy)phenyl)-4,5-dimethyl-5-(trifluoromethyl)tetrahydrofuran-2-carboxamido)picolinamide] | < 10
7 | C[C@H]1[C@@H](c2cc(Br)c(F)c(F)c2O)[C@H](C(=O)Nc2ccnc(C(N)=O)c2)O[C@@]1(C)C(F)(F)F [Compound 176, 4-((2R,3S,4S,5R)-3-(5-bromo-3,4-difluoro-2-hydroxyphenyl)-4,5-dimethyl-5-(trifluoromethyl)tetrahydrofuran-2-carboxamido)picolinamide] | ≥ 1000
8 | C[C@@H]1CN(CCOc2c([C@H]3[C@H](C(=O)Nc4ccnc(C(N)=O)c4)O[C@@](C)(C(F)(F)F)[C@H]3C)ccc(F)c2F)CCO1 [Compound 109, 4-((2R,3S,4S,5R)-3-(3,4-difluoro-2-(2-((R)-2-methylmorpholino)ethoxy)phenyl)-4,5-dimethyl-5-(trifluoromethyl)tetrahydrofuran-2-carboxamido)picolinamide] | < 10
9 | CNC(=O)c1cc(NC(=O)[C@@H]2O[C@@](C)(C(F)(F)F)[C@@H](C)[C@H]2c2ccc(F)c(F)c2OCCN2CC3(COC3)C2)ccn1 [Compound 136, 4-((2R,3S,4S,5R)-3-(2-(2-(2-oxa-6-azaspiro[3.3]heptan-6-yl)ethoxy)-3,4-difluorophenyl)-4,5-dimethyl-5-(trifluoromethyl)tetrahydrofuran-2-carboxamido)-N-methylpicolinamide] | 10 to 100
10 | C=C(/C=C/Oc1c([C@H]2[C@H](C(=O)Nc3ccnc(C(N)=O)c3)O[C@@](C)(C(F)(F)F)[C@H]2C)ccc(F)c1F)C(F)(F)F [Compound 172, 4-((2R,3S,4S,5R)-3-(3,4-difluoro-2-(((E)-3-(trifluoromethyl)buta-1,3-dien-1-yl)oxy)phenyl)-4,5-dimethyl-5-(trifluoromethyl)tetrahydrofuran-2-carboxamido)picolinamide] | 10 to 100
11 | C[C@@H](O)COc1c([C@H]2[C@H](C(=O)Nc3ccnc(C(N)=O)c3)O[C@@](C)(C(F)(F)F)[C@H]2C)ccc(F)c1F [Compound 152, 4-((2R,3S,4S,5R)-3-(3,4-difluoro-2-((R)-2-hydroxypropoxy)phenyl)-4,5-dimethyl-5-(trifluoromethyl)tetrahydrofuran-2-carboxamido) picolinamide] | 10 to 100
12 | COc1c([C@@H]2[C@@H](C(=O)Nc3ccnc(C(N)=O)c3)O[C@](C)(C(F)(F)F)[C@@H]2C)ccc(OCC2CC2)c1F (single isomer, unassigned) [Compound 141] | 100 to 1000
13 | COc1c([C@H]2[C@H](C(=O)Nc3ccnc(C(=O)N4CCN(C)CC4)n3)O[C@@](C)(C(F)(F)F)[C@H]2C)ccc(F)c1F [Compound 11, (2R,3S,4S,5R)-3-(3,4-difluoro-2-methoxyphenyl)-4,5-dimethyl-N-(2-(4-methylpiperazine-1-carbonyl)pyrimidin-4-yl)-5-(trifluoromethyl)tetrahydrofuran-2-carboxamide] | 10 to 100
14 | COc1c([C@H]2[C@H](C(=O)Nc3ccnc(C(=O)N4C[C@@H](N)[C@@H](OC)C4)c3)O[C@@](C)(C(F)(F)F)[C@H]2C)ccc(F)c1F [Compound 261, (2R,3S,4S,5R)-N-(2-((3R,4S)-3-amino-4-methoxypyrrolidine-1-carbonyl)pyridin-4-yl)-3-(3,4-difluoro-2-methoxyphenyl)-4,5-dimethyl-5-(trifluoromethyl)tetrahydrofuran-2-carboxamide] | < 10
15 | C[C@H]1[C@@H](c2ccc(F)c(F)c2OCCN2C3COCC2C3)[C@H](C(=O)Nc2ccnc(C(N)=O)c2)O[C@@]1(C)C(F)(F)F [Compound 131, 4-((2R,3S,4S,5R)-3-(2-(2-(3-oxa-6-azabicyclo[3.1.1]heptan-6-yl)ethoxy)-3,4-difluorophenyl)-4,5-dimethyl-5-(trifluoromethyl)tetrahydrofuran-2-carboxamido)picolinamide] | 10 to 100
16 | C[C@H]1[C@@H](c2ccc(F)c(F)c2OCc2cc[nH]n2)[C@H](C(=O)Nc2ccnc(C(N)=O)c2)O[C@@]1(C)C(F)(F)F [Compound 83, 4-((2R,3S,4S,5R)-3-(2-((1H-pyrazol-3-yl)methoxy)-3,4-difluorophenyl)-4,5-dimethyl-5-(trifluoromethyl)tetrahydrofuran-2-carboxamido)picolinamide] | < 10
17 | C[C@H]1[C@@H](c2ccc(F)c(F)c2OCCC2(C#N)CC2)[C@H](C(=O)Nc2ccnc(C(N)=O)c2)O[C@@]1(C)C(F)(F)F [Compound 77, 4-((2R,3S,4S,5R)-3-(2-(2-(1-cyanocyclopropyl)ethoxy)-3,4-difluorophenyl)-4,5-dimethyl-5-(trifluoromethyl)tetrahydrofuran-2-carboxamido)picolinamide] | < 10
18 | COc1c([C@H]2[C@H](C(=O)Nc3cc(C(=O)N4CCNCC4)ncn3)O[C@@](C)(C(F)(F)F)[C@H]2C)ccc(F)c1F [Compound 21, (2R,3S,4S,5R)-3-(3,4-difluoro-2-methoxyphenyl)-4,5-dimethyl-N-(6-(piperazine-1-carbonyl)pyrimidin-4-yl)-5-(trifluoromethyl)tetrahydrofuran-2-carboxamide] | 10 to 100
